The values below are quoted from earlier work in patent publication US6939400B2, “Ink, production method of the same materials for producing the same and printed matter with the same” (Teikoku Printing Mfg. Co., Ltd., priority 2002, dated 2005).

The structures appear in SMILES notation.

The subject of the data set is mouse.

For `COC(C)(C)CCO` [3-methyl-3-methoxy-1-butanol], the “LD 50 value representing the mouse oral toxicity” value was 5,830 mg/kg.
